Source: the kinase profiling compilation of Christmann-Franck et al. (2016)

Target: MAPK8 (human) (UniProt P45983)
Test: radiometric filter-binding kinase assay
Conditions: compound 100.0 µM; ATP 20 µM

Sequence of MAPK8 (human) (P45983 whole entry, looked up): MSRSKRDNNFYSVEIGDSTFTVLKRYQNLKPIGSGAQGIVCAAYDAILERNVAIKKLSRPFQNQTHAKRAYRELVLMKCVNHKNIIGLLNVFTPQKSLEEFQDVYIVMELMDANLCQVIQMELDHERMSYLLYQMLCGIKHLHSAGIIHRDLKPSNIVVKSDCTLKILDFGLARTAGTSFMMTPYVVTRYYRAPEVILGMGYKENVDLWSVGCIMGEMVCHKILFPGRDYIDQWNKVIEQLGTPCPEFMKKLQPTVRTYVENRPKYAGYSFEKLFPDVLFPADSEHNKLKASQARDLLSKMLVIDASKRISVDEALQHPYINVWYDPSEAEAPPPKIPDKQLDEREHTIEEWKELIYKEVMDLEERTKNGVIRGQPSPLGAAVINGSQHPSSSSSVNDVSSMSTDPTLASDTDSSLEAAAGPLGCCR

SMILES | inhibition
CC(=O)Nc1nc2cnc(-c3ccccc3)cn2n1 | 2%
CC1CN(c2nc3ccccn3c(=O)c2N)CC(C)O1 (stereo not drawn) | 14%
O=C(c1cccc(-c2cc3c(=O)[nH]cnc3s2)c1)N1CCOCC1 | 8%

Target: MAPKAPK2 (human) (UniProt P49137)
Test: radiometric filter-binding kinase assay
Conditions: compound 100.0 µM; ATP 20 µM

SMILES | inhibition
O=C(Nc1cnc2[nH]ccn2c1=O)c1ccccc1 | 29%
CC(C)(C)Nc1c(COCc2ccccc2)nc2[nH]cnn12 | 2%
CC(=O)Nc1nc2cnc(-c3ccccc3)cn2n1 | 7%
CC1CN(c2nc3ccccn3c(=O)c2N)CC(C)O1 (stereo not drawn) | 0%
O=C(c1cccc(-c2cc3c(=O)[nH]cnc3s2)c1)N1CCOCC1 | 15%

Target: MARK1 (human) (UniProt Q9P0L2)
Test: radiometric filter-binding kinase assay
Conditions: compound 100.0 µM; ATP 20 µM

SMILES | inhibition
O=C(Nc1cnc2[nH]ccn2c1=O)c1ccccc1 | 16%
CC(C)(C)Nc1c(COCc2ccccc2)nc2[nH]cnn12 | 0%
CC(=O)Nc1nc2cnc(-c3ccccc3)cn2n1 | 6%
CC1CN(c2nc3ccccn3c(=O)c2N)CC(C)O1 (stereo not drawn) | 26%
O=C(c1cccc(-c2cc3c(=O)[nH]cnc3s2)c1)N1CCOCC1 | 31%

Target: MKNK2 (human) (UniProt Q9HBH9)
Sequence (Q9HBH9 whole entry, looked up): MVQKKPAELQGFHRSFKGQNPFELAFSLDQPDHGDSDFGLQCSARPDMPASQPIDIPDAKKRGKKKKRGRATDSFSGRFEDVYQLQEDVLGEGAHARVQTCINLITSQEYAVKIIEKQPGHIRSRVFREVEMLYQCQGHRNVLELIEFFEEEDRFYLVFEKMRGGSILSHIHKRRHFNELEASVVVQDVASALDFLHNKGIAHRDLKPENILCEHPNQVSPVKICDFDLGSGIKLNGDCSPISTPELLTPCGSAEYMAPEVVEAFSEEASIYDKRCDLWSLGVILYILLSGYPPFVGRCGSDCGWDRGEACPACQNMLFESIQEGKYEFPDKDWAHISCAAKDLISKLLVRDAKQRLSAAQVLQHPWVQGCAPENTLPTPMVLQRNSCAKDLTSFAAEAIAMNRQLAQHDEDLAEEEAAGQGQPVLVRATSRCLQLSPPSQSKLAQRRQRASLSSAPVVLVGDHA
Test: radiometric filter-binding kinase assay
Conditions: compound 100.0 µM; ATP 50 µM

SMILES | inhibition
O=C(Nc1cnc2[nH]ccn2c1=O)c1ccccc1 | 25%
CC(C)(C)Nc1c(COCc2ccccc2)nc2[nH]cnn12 | 0%
CC(=O)Nc1nc2cnc(-c3ccccc3)cn2n1 | 35%
CC1CN(c2nc3ccccn3c(=O)c2N)CC(C)O1 (stereo not drawn) | 0%
O=C(c1cccc(-c2cc3c(=O)[nH]cnc3s2)c1)N1CCOCC1 | 30%

Target: NTRK1 (human) (UniProt P04629)
Sequence (P04629 whole entry, looked up): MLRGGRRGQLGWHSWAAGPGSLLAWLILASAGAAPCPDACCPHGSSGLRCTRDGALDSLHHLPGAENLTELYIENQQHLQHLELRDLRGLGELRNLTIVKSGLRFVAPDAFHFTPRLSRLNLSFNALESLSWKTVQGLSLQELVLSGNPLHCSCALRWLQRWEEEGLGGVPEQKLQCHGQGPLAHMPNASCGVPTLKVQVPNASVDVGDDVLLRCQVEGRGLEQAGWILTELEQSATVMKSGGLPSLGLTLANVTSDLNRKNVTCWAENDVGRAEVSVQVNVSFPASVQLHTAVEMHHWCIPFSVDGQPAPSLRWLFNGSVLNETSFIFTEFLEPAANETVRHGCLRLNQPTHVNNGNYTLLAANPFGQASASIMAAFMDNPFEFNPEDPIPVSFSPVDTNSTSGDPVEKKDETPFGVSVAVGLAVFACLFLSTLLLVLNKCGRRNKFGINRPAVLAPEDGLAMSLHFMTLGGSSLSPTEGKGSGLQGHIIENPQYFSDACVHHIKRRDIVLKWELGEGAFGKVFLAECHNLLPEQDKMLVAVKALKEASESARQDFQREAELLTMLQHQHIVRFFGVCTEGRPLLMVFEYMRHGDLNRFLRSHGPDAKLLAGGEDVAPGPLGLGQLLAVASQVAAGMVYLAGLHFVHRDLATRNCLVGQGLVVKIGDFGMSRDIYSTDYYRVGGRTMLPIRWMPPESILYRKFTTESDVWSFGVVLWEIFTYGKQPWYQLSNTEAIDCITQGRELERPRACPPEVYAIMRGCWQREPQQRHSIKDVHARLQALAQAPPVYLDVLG
Test: radiometric filter-binding kinase assay
Conditions: compound 100.0 µM; ATP 20 µM

SMILES | inhibition
O=C(Nc1cnc2[nH]ccn2c1=O)c1ccccc1 | 39%
CC(C)(C)Nc1c(COCc2ccccc2)nc2[nH]cnn12 | 6%
CC(=O)Nc1nc2cnc(-c3ccccc3)cn2n1 | 28%
CC1CN(c2nc3ccccn3c(=O)c2N)CC(C)O1 (stereo not drawn) | 37%
O=C(c1cccc(-c2cc3c(=O)[nH]cnc3s2)c1)N1CCOCC1 | 41%

Target: PAK4 (human) (UniProt O96013)
Test: radiometric filter-binding kinase assay
Conditions: compound 100.0 µM; ATP 5 µM

SMILES | inhibition
O=C(Nc1cnc2[nH]ccn2c1=O)c1ccccc1 | 20%
CC(C)(C)Nc1c(COCc2ccccc2)nc2[nH]cnn12 | 0%
CC(=O)Nc1nc2cnc(-c3ccccc3)cn2n1 | 47%
CC1CN(c2nc3ccccn3c(=O)c2N)CC(C)O1 (stereo not drawn) | 0%
O=C(c1cccc(-c2cc3c(=O)[nH]cnc3s2)c1)N1CCOCC1 | 34%

Target: PAK6 (human) (UniProt Q9NQU5)
Sequence (Q9NQU5 whole entry, looked up): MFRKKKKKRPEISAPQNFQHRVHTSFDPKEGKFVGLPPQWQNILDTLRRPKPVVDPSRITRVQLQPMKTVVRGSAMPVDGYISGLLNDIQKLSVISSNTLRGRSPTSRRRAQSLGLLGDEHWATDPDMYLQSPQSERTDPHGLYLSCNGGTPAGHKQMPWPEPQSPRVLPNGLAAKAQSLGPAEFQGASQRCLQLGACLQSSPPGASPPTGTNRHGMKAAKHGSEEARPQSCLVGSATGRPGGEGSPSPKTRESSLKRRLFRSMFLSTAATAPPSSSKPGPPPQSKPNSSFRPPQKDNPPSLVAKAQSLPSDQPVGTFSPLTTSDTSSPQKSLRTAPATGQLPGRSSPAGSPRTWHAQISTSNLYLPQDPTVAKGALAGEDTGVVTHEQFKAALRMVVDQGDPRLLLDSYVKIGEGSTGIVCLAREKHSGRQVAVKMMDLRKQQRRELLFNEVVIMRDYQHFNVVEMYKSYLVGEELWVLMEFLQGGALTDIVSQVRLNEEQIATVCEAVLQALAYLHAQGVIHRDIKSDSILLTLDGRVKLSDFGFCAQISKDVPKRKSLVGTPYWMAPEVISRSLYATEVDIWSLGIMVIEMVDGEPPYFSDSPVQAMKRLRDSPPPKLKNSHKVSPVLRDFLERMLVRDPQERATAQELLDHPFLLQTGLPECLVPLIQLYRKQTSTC
Test: radiometric filter-binding kinase assay
Conditions: compound 100.0 µM; ATP 20 µM

SMILES | inhibition
O=C(Nc1cnc2[nH]ccn2c1=O)c1ccccc1 | 6%
CC(C)(C)Nc1c(COCc2ccccc2)nc2[nH]cnn12 | 20%
CC(=O)Nc1nc2cnc(-c3ccccc3)cn2n1 | 18%
CC1CN(c2nc3ccccn3c(=O)c2N)CC(C)O1 (stereo not drawn) | 4%
O=C(c1cccc(-c2cc3c(=O)[nH]cnc3s2)c1)N1CCOCC1 | 0%

Target: PAK7 (human) (UniProt Q9P286)
Test: radiometric filter-binding kinase assay
Conditions: compound 100.0 µM; ATP 20 µM

SMILES | inhibition
O=C(Nc1cnc2[nH]ccn2c1=O)c1ccccc1 | 3%
CC(C)(C)Nc1c(COCc2ccccc2)nc2[nH]cnn12 | 0%
CC(=O)Nc1nc2cnc(-c3ccccc3)cn2n1 | 20%
CC1CN(c2nc3ccccn3c(=O)c2N)CC(C)O1 (stereo not drawn) | 0%
O=C(c1cccc(-c2cc3c(=O)[nH]cnc3s2)c1)N1CCOCC1 | 0%

Target: PIM3 (human) (UniProt Q86V86)
Test: radiometric filter-binding kinase assay
Conditions: compound 100.0 µM; ATP 20 µM

SMILES | inhibition
O=C(Nc1cnc2[nH]ccn2c1=O)c1ccccc1 | 0%
CC(C)(C)Nc1c(COCc2ccccc2)nc2[nH]cnn12 | 18%
CC(=O)Nc1nc2cnc(-c3ccccc3)cn2n1 | 30%
CC1CN(c2nc3ccccn3c(=O)c2N)CC(C)O1 (stereo not drawn) | 1%
O=C(c1cccc(-c2cc3c(=O)[nH]cnc3s2)c1)N1CCOCC1 | 51%

Target: PLK1 (human) (UniProt P53350)
Sequence (P53350 whole entry, looked up): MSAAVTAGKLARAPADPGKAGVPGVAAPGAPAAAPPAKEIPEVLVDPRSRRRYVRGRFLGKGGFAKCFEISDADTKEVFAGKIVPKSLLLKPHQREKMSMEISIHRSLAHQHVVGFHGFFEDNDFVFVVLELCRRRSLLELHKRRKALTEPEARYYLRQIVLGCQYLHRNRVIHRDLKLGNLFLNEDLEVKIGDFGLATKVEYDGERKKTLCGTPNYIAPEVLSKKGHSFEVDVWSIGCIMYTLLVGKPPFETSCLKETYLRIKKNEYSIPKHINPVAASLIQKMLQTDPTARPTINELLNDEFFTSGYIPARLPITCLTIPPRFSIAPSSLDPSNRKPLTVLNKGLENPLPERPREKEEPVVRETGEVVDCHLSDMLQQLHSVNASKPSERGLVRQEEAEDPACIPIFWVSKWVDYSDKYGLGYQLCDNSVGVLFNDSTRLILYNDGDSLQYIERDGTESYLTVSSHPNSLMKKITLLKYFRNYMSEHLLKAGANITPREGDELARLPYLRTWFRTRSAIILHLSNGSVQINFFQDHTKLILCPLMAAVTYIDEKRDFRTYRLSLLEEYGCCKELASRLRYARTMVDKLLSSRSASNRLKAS
Test: radiometric filter-binding kinase assay
Conditions: compound 100.0 µM; ATP 5 µM

SMILES | inhibition
O=C(Nc1cnc2[nH]ccn2c1=O)c1ccccc1 | 10%
CC(C)(C)Nc1c(COCc2ccccc2)nc2[nH]cnn12 | 0%
CC(=O)Nc1nc2cnc(-c3ccccc3)cn2n1 | 4%
CC1CN(c2nc3ccccn3c(=O)c2N)CC(C)O1 (stereo not drawn) | 0%
O=C(c1cccc(-c2cc3c(=O)[nH]cnc3s2)c1)N1CCOCC1 | 0%

Target: PRKCA (human) (UniProt P17252)
Test: radiometric filter-binding kinase assay
Conditions: compound 100.0 µM; ATP 20 µM

SMILES | inhibition
O=C(Nc1cnc2[nH]ccn2c1=O)c1ccccc1 | 2%
CC(C)(C)Nc1c(COCc2ccccc2)nc2[nH]cnn12 | 0%
CC(=O)Nc1nc2cnc(-c3ccccc3)cn2n1 | 0%
CC1CN(c2nc3ccccn3c(=O)c2N)CC(C)O1 (stereo not drawn) | 15%
O=C(c1cccc(-c2cc3c(=O)[nH]cnc3s2)c1)N1CCOCC1 | 21%

Target: RIPK2 (human) (UniProt O43353)
Test: radiometric filter-binding kinase assay
Conditions: compound 100.0 µM; ATP 20 µM

SMILES | inhibition
O=C(Nc1cnc2[nH]ccn2c1=O)c1ccccc1 | 16%
CC(C)(C)Nc1c(COCc2ccccc2)nc2[nH]cnn12 | 13%
CC(=O)Nc1nc2cnc(-c3ccccc3)cn2n1 | 29%
CC1CN(c2nc3ccccn3c(=O)c2N)CC(C)O1 (stereo not drawn) | 28%
O=C(c1cccc(-c2cc3c(=O)[nH]cnc3s2)c1)N1CCOCC1 | 12%

System: ROCK2 (rat)
Test: radiometric filter-binding kinase assay
Conditions: compound 100.0 µM; ATP 20 µM; accession and sequence are those of the human protein

SMILES | inhibition
O=C(Nc1cnc2[nH]ccn2c1=O)c1ccccc1 | 11%
CC(C)(C)Nc1c(COCc2ccccc2)nc2[nH]cnn12 | 0%
CC(=O)Nc1nc2cnc(-c3ccccc3)cn2n1 | 25%
CC1CN(c2nc3ccccn3c(=O)c2N)CC(C)O1 (stereo not drawn) | 17%
O=C(c1cccc(-c2cc3c(=O)[nH]cnc3s2)c1)N1CCOCC1 | 39%

Target: RPS6KA1 KD1 KD2 (human) (UniProt Q15418)
Test: radiometric filter-binding kinase assay
Conditions: compound 100.0 µM; ATP 50 µM

SMILES | inhibition
O=C(Nc1cnc2[nH]ccn2c1=O)c1ccccc1 | 23%
CC(C)(C)Nc1c(COCc2ccccc2)nc2[nH]cnn12 | 3%
CC(=O)Nc1nc2cnc(-c3ccccc3)cn2n1 | 24%
CC1CN(c2nc3ccccn3c(=O)c2N)CC(C)O1 (stereo not drawn) | 0%
O=C(c1cccc(-c2cc3c(=O)[nH]cnc3s2)c1)N1CCOCC1 | 47%

Target: RPS6KA3 KD1 KD2 (human) (UniProt P51812)
Test: radiometric filter-binding kinase assay
Conditions: compound 100.0 µM; ATP 50 µM

SMILES | inhibition
O=C(Nc1cnc2[nH]ccn2c1=O)c1ccccc1 | 10%
CC(C)(C)Nc1c(COCc2ccccc2)nc2[nH]cnn12 | 48%
CC(=O)Nc1nc2cnc(-c3ccccc3)cn2n1 | 9%
CC1CN(c2nc3ccccn3c(=O)c2N)CC(C)O1 (stereo not drawn) | 84%
O=C(c1cccc(-c2cc3c(=O)[nH]cnc3s2)c1)N1CCOCC1 | 39%

Target: RPS6KA5 KD1 KD2 (human) (UniProt O75582)
Test: radiometric filter-binding kinase assay
Conditions: compound 100.0 µM; ATP 20 µM

SMILES | inhibition
O=C(Nc1cnc2[nH]ccn2c1=O)c1ccccc1 | 4%
CC(C)(C)Nc1c(COCc2ccccc2)nc2[nH]cnn12 | 0%
CC(=O)Nc1nc2cnc(-c3ccccc3)cn2n1 | 11%
CC1CN(c2nc3ccccn3c(=O)c2N)CC(C)O1 (stereo not drawn) | 0%
O=C(c1cccc(-c2cc3c(=O)[nH]cnc3s2)c1)N1CCOCC1 | 24%

Target: SRPK1 (human) (UniProt Q96SB4)
Test: radiometric filter-binding kinase assay
Conditions: compound 100.0 µM; ATP 50 µM

SMILES | inhibition
O=C(Nc1cnc2[nH]ccn2c1=O)c1ccccc1 | 14%
CC(C)(C)Nc1c(COCc2ccccc2)nc2[nH]cnn12 | 3%
CC(=O)Nc1nc2cnc(-c3ccccc3)cn2n1 | 25%
CC1CN(c2nc3ccccn3c(=O)c2N)CC(C)O1 (stereo not drawn) | 74%
O=C(c1cccc(-c2cc3c(=O)[nH]cnc3s2)c1)N1CCOCC1 | 19%

Target: TAOK1 (human) (UniProt Q7L7X3)
Sequence (Q7L7X3 whole entry, looked up): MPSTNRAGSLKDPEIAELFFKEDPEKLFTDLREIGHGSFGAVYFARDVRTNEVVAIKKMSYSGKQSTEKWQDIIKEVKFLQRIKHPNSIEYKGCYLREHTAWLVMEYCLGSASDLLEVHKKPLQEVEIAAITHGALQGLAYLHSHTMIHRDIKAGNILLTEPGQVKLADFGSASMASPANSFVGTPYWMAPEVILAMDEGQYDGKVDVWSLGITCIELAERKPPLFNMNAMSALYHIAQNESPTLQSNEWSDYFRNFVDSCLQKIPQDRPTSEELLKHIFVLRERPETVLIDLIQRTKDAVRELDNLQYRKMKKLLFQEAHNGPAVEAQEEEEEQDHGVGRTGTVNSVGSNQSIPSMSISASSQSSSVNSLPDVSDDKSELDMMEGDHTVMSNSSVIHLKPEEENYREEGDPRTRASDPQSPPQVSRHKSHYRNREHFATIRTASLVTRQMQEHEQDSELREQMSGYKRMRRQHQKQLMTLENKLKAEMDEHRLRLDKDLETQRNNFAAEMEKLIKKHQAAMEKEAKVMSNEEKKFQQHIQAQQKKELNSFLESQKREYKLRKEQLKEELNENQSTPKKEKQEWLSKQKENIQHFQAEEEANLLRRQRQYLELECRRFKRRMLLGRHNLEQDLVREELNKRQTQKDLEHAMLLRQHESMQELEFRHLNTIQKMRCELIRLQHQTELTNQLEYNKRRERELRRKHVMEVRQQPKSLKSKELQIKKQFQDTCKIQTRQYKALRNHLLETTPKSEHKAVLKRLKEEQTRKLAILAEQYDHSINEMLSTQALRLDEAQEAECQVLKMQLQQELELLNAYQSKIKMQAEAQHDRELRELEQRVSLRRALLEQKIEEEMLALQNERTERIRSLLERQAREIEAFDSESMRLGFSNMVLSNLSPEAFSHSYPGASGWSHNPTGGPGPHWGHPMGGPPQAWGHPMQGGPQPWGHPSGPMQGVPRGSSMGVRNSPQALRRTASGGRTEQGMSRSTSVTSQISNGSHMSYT
Test: radiometric filter-binding kinase assay
Conditions: compound 100.0 µM; ATP 20 µM

SMILES | inhibition
O=C(Nc1cnc2[nH]ccn2c1=O)c1ccccc1 | 0%
CC(C)(C)Nc1c(COCc2ccccc2)nc2[nH]cnn12 | 0%
CC(=O)Nc1nc2cnc(-c3ccccc3)cn2n1 | 0%
CC1CN(c2nc3ccccn3c(=O)c2N)CC(C)O1 (stereo not drawn) | 0%
O=C(c1cccc(-c2cc3c(=O)[nH]cnc3s2)c1)N1CCOCC1 | 3%

Target: TTK (human) (UniProt P33981)
Test: radiometric filter-binding kinase assay
Conditions: compound 100.0 µM; ATP 20 µM

SMILES | inhibition
O=C(Nc1cnc2[nH]ccn2c1=O)c1ccccc1 | 0%
CC(C)(C)Nc1c(COCc2ccccc2)nc2[nH]cnn12 | 7%
CC(=O)Nc1nc2cnc(-c3ccccc3)cn2n1 | 4%
CC1CN(c2nc3ccccn3c(=O)c2N)CC(C)O1 (stereo not drawn) | 3%
O=C(c1cccc(-c2cc3c(=O)[nH]cnc3s2)c1)N1CCOCC1 | 0%

Target: ZAP70 (human) (UniProt P43403)
Test: radiometric filter-binding kinase assay
Conditions: compound 100.0 µM; ATP 5 µM

SMILES | inhibition
O=C(Nc1cnc2[nH]ccn2c1=O)c1ccccc1 | 9%
CC(C)(C)Nc1c(COCc2ccccc2)nc2[nH]cnn12 | 0%
CC(=O)Nc1nc2cnc(-c3ccccc3)cn2n1 | 16%
CC1CN(c2nc3ccccn3c(=O)c2N)CC(C)O1 (stereo not drawn) | 38%
O=C(c1cccc(-c2cc3c(=O)[nH]cnc3s2)c1)N1CCOCC1 | 0%
